# Measured values published in patent US20220117867A1, “ANTIMICROBIAL ACTIVITY OF FATTY ACID ESTERS AND COMBINATIONS THEREOF” (SYMRISE AG, priority 2019, published 2022).
# Like-named read-outs stand apart in the source and are kept apart here.
# Legend:
# Type in all cases: cell-based
# [1] = system: Epidermophyton floccosum; experiment: Minimum Inhibitory Concentration (MIC) Method B, DIN 58940; Synergy Index according to Kull; settings: single substance
# Description: (§1) B) Minimum Inhibitory Concentration (MIC) Method B
# (§2) 5 ml of the appropriate dilution of the test product is mixed with 0.1 ml of test suspension and mixed well. After the required action times, the mixture was mixed again. Each 0.1 ml were removed and placed in 5 ml of CSL-bouillon without neutralizing agents.
# (§3) In order to calculate the synergy index with MIC values, the Kull equation (I) was used as follows:
# (§4) SI=(MICmixture×PA)/MICA+(MICmixture×PB)/MICB (I)
# SI is the Synergy Index according to Kull
# MICA is the MIC value for Substance A
# MICB is the MIC value for Substance B
# MICmixture is the MIC value for the mixture of substances A and B
# PA is the proportion of the substance A in the mixture
# PB is the proportion of the substance B in the mixture
# [2] = system: Candida albicans; experiment: Minimum Inhibitory Concentration (MIC) Method A
# Description: (§5) A) Minimum Inhibitory Concentration (MIC) Method A The MIC test is a test on growth inhibition. Estimation of Minimum Inhibitory Concentration (MIC) is executed in 96 well plates. Through the comparison of bacterial growth curves with positive and negative controls via optical density (OD), different concentrations of given test substances are evaluated. Bacteria are cultivated under adjusted conditions based on information of the German Collection of Microorganisms and Cell Cultures (DSMZ) and stored in 50% Glycerol prior to use. Afterwards, the following method was applied: Adding growth medium (according to microorganism) to each well of the microplate. Adding the test-substances in different concentrations, positive controls (water controls only with medium) and negative controls (benchmarks according to organism). Adding the microorganism in a concentration of 10^6 CFU/ml (CFU=colony forming units). Incubation of the microplates at appropriate conditions. Aerobic microorganism: optical density is continuously measured (microplate reader) during incubation. Anaerobic microorganism: incubation in an anaerobic chamber, measurement of the optical density at the end of the incubation, comparison of the results with positive and negative controls. According to resulting growth curves, substance concentrations are labelled either as inhibiting or normal growth and MIC is defined as the lowest concentration where a clear inhibition is visible. Experiments at concentration limits (highest concentration labelled as growth and lowest concentration labelled as inhibiting) are performed at least twice.
# [3] = system: Corynebacterium xerosis; experiment: Minimum Inhibitory Concentration (MIC) Method A
# Description: as §5
# [4] = system: Fusobacterium nucleatum; experiment: Minimum Inhibitory Concentration (MIC) Method A
# Description: as §5
# [5] = system: Porphyromonas gingivalis; experiment: Minimum Inhibitory Concentration (MIC) Method A
# Description: as §5
# [6] = system: Prevotella intermedia; experiment: Minimum Inhibitory Concentration (MIC) Method A
# Description: as §5
# [7] = system: Staphylococcus hominis; experiment: Minimum Inhibitory Concentration (MIC) Method A
# Description: as §5
# [8] = system: Aspergillus brasiliensis; experiment: Minimum Inhibitory Concentration (MIC) Method A
# Description: (§6) A) Minimum Inhibitory Concentration (MIC) Method A
# (§7) The MIC test is a test on growth inhibition. Estimation of Minimum Inhibitory Concentration (MIC) is executed in 96 well plates. Through the comparison of bacterial growth curves with positive and negative controls via optical density (OD), different concentrations of given test substances are evaluated.
# (§8) Bacteria are cultivated under adjusted conditions based on information of the German Collection of Microorganisms and Cell Cultures (DSMZ) and stored in 50% Glycerol prior to use. Afterwards, the following method was applied:
# (§9) Adding growth medium (according to microorganism) to each well of the microplate.
# (§10) Adding the test-substances in different concentrations, positive controls (water controls only with medium) and negative controls (benchmarks according to organism).
# (§11) Adding the microorganism in a concentration of 10^6 CFU/ml (CFU=colony forming units). Incubation of the microplates at appropriate conditions.
# (§12) Aerobic microorganism: optical density is continuously measured (microplate reader) during incubation.
# (§13) According to resulting growth curves, substance concentrations are labelled either as inhibiting or normal growth and MIC is defined as the lowest concentration where a clear inhibition is visible. Experiments at concentration limits (highest concentration labelled as growth and lowest concentration labelled as inhibiting) are performed at least twice.
# [9] = system: Escherichia coli; experiment: Minimum Inhibitory Concentration (MIC) Method A
# Description: as §6, §7, §8, §9, §10, §11, §12, §13
# [10] = system: Staphylococcus aureus; experiment: Minimum Inhibitory Concentration (MIC) Method A
# Description: as §6, §7, §8, §9, §10, §11, §12, §13
# [11] = system: Staphylococcus epidermidis; experiment: Minimum Inhibitory Concentration (MIC) Method A
# Description: as §6, §7, §8, §9, §10, §11, §12, §13
# [12] = system: Fannyhessea vaginae (Atopobium vaginae); experiment: Minimum Inhibitory Concentration (MIC) Method B
# Description: (§14) B) Minimum Inhibitory Concentration (MIC) Method B Test conditions: Evaluation of bactericidal and fungicidal activity in qualitative suspension test (VAH-standard methods, 04-2015). 5 ml of the appropriate dilution of the test product is mixed with 0.1 ml of test suspension and mixed well. After the required action times, the mixture was mixed again. Each 0.1 ml were removed and placed in 5 ml of CSL-bouillon without neutralizing agents.
# [13] = system: Gardnerella vaginalis; experiment: Minimum Inhibitory Concentration (MIC) Method B
# Description: as §14
# [14] = system: Peptoniphilus lacrimalis; experiment: Minimum Inhibitory Concentration (MIC) Method B
# Description: as §14
# [15] = system: Streptococcus agalactiae; experiment: Minimum Inhibitory Concentration (MIC) Method B
# Description: as §14
# [16] = system: Streptococcus mutans; experiment: Minimum Inhibitory Concentration (MIC) Method B
# Description: as §14
# [17] = system: Trichophyton rubrum; experiment: Minimum Inhibitory Concentration (MIC) Method B
# Description: as §14
# [18] = system: Aspergillus brasiliensis; experiment: Minimum Inhibitory Concentration (MIC) Method B, DIN 58940; Synergy Index according to Kull; settings: Method B (Example 5), A. brasiliensis, single substance
# Description: as §1
# as §14, with “Test” for “B) Minimum Inhibitory Concentration (MIC) Method B Test”
# as §3, §4
# (§15) The synergistic activity of 3-hydroxypropyl caprylate and glyceryl caprylate on several bacterial and fungal reference strains for application in either Deodorant application or as preservative was determined by measuring minimum inhibitory concentrations (MIC values) according to DIN 58940 and method B (method section above).
# [19] = system: Escherichia coli; experiment: as above; settings: Method B (Example 5), E. coli, single substance
# Description: as §1
# as §14, with “Test” for “B) Minimum Inhibitory Concentration (MIC) Method B Test”
# as §3, §4, §15
# [20] = system: Staphylococcus hominis; experiment: as above; settings: Method B (Example 5), S. hominis, single substance
# Description: as §1
# as §14, with “Test” for “B) Minimum Inhibitory Concentration (MIC) Method B Test”
# as §3, §4, §15
# [21] = system: Candida albicans; experiment: Preservative Efficacy Test (method C)
# Description: (§16) C) Preservative Efficacy Test
# (§17) Test conditions: Sample (1% test substance in adequate formulation (o/w emulsion)) was inoculated with 0.1 ml of the microbial suspensions, homogenized, and incubated at 20° C.-25° C. Colony count was determined after 2, 7, 14, and 28 days of incubation through plating on adequate solid medium.
# (§18) 3-hydroxypropyl caprylate was tested in a potential formulation against the microorganisms Escherichia coli, Pseudomonas aeruginosa, Staphylococcus aureus, and Candida albicans using method C. Resulting colony counts are depicted in Table 4.
# [22] = system: Escherichia coli; experiment: Preservative Efficacy Test (method C); settings: E. coli; for Colony counts: 1% test substance in o/w emulsion; for Relative colony counts: relative to inoculum = 1.0000
# Description: as §16, §17, §18
# [23] = system: Pseudomonas aeruginosa; experiment: Preservative Efficacy Test (method C); settings: P. aeruginosa; for Colony counts: 1% test substance in o/w emulsion; for Relative colony counts: relative to inoculum = 1.0000
# Description: as §16, §17, §18
# [24] = system: Staphylococcus aureus; experiment: Preservative Efficacy Test (method C); settings: S. aureus; for Colony counts: 1% test substance in o/w emulsion; for Relative colony counts: relative to inoculum = 1.0000
# Description: as §16, §17, §18
# [25] = system: human sebaceous glands; experiment: Sebum secretion in cultured micro-dissected human sebaceous glands; settings: human sebaceous glands of Donor 1 and Donor 2; six days culture; different concentrations; vs untreated control
# Description: Additional tests were performed with human sebaceous glands in order to verify the modulatory activity of a compound on sebum secretion. For this sebaceous glands had been micro-dissected and cultured with medium. The medium without any supplement served as untreated control. Medium with 5 μM Capsaicin served as positive control. Additionally, culture medium was supplemented with different concentrations of 3-hydroxypropyl caprylate. After six days the sebaceous glands were collected and lipids and proteins quantified. The total lipid amount being representative of sebum production was obtained by normalizing the quantified lipids upon the quantified proteins (i.e. mg of lipids/mg of proteins).
# [26] = system: Corynebacterium xerosis; experiment: Minimum Inhibitory Concentration (MIC) Method B, DIN 58940; Synergy Index according to Kull; settings: Method B (Examples 3, 5, 6), C. xerosis, single substance
# Description: as §1, §2, §3, §4
smiles,measurement,setting,value
"CCCCC(O)CO (stereo not drawn) [1,2 Hexanediol]",MIC,[1],10000 µg/mL
CCCCCCCC(=O)OCCCO [3-hydroxypropyl caprylate],MIC,[2],500 µg/mL
same,MIC,[3]; read-out: MIC,500 µg/mL
same,MIC,[4],250 µg/mL
same,MIC,[5],250 µg/mL
same,MIC,[6],125 µg/mL
same,MIC,[7],1000 µg/mL
same,MIC,[8]; read-out: MIC,1000 µg/mL
same,MIC,[9]; read-out: MIC,1000 µg/mL
same,MIC,[10]; read-out: MIC,500 µg/mL
same,MIC,[11]; read-out: MIC,500 µg/mL
same,MIC,[12],500 µg/mL
same,MIC,[13],500 µg/mL
same,MIC,[14],1000 µg/mL
same,MIC,[15],10000 µg/mL
same,MIC,[16],5000 µg/mL
same,MIC,[17],500 µg/mL
same,MIC,[1],500 µg/mL
same,MIC,[18],1000 µg/mL
same,MIC,[19],1000 µg/mL
same,MIC,[20],1000 µg/mL
same,Colony counts,"[21]; Day 2, 1% test substance in o/w emulsion, inoculum 4200000",330000 cfu/g formulation
same,Relative colony counts,"[21]; Day 2, relative to inoculum = 1.0000",0.0786
same,Colony counts,"[21]; Day 7, 1% test substance in o/w emulsion",>10 cfu/g formulation
same,Relative colony counts,"[21]; Day 7, relative to inoculum = 1.0000",0.0000
same,Colony counts,"[21]; Day 14, 1% test substance in o/w emulsion",>10 cfu/g formulation
same,Relative colony counts,"[21]; Day 14, relative to inoculum = 1.0000",0.0000
same,Colony counts,"[21]; Day 28, 1% test substance in o/w emulsion",>10 cfu/g formulation
same,Relative colony counts,"[21]; Day 28, relative to inoculum = 1.0000",0.0000
same,Colony counts,"[22]; Day 2, inoculum 4500000",15 cfu/g formulation
same,Relative colony counts,[22]; Day 2,0.0000
same,Colony counts,[22]; Day 7,>10 cfu/g formulation
same,Relative colony counts,[22]; Day 7,0.0000
same,Colony counts,[22]; Day 14,>10 cfu/g formulation
same,Relative colony counts,[22]; Day 14,0.0000
same,Colony counts,[22]; Day 28,>10 cfu/g formulation
same,Relative colony counts,[22]; Day 28,0.0000
same,Colony counts,"[23]; Day 2, inoculum 4400000",>10 cfu/g formulation
same,Relative colony counts,[23]; Day 2,0.0000
same,Colony counts,[23]; Day 7,>10 cfu/g formulation
same,Relative colony counts,[23]; Day 7,0.0000
same,Colony counts,[23]; Day 14,>10 cfu/g formulation
same,Relative colony counts,[23]; Day 14,0.0000
same,Colony counts,[23]; Day 28,>10 cfu/g formulation
same,Relative colony counts,[23]; Day 28,0.0000
same,Colony counts,"[24]; Day 2, inoculum 3500000",250000 cfu/g formulation
same,Relative colony counts,[24]; Day 2,0.0714 fraction of inoculum
same,Colony counts,[24]; Day 7,>10 cfu/g formulation
same,Relative colony counts,[24]; Day 7,0.0000 fraction of inoculum
same,Colony counts,[24]; Day 14,>10 cfu/g formulation
same,Relative colony counts,[24]; Day 14,0.0000 fraction of inoculum
same,Colony counts,[24]; Day 28,>10 cfu/g formulation
same,Relative colony counts,[24]; Day 28,0.0000 fraction of inoculum
same,"relative change in total lipids (mg of lipids/mg of proteins), representative of sebum production",[25],concentration dependent reduction of total lipids
C=CCCCCCCCCC(=O)OCCCO [3-hydroxypropyl undecylenate],MIC,[3]; read-out: MIC,250 µg/mL
same,MIC,[8]; read-out: MIC,500 µg/mL
same,MIC,[10]; read-out: MIC,500 µg/mL
same,MIC,[11]; read-out: MIC,64 µg/mL
"CCCCCCC(O)CO (stereo not drawn) [Caprylyl Glycol, 1,2-Octanediol]",MIC,[1],5000 µg/mL
same,MIC,[26],2500 µg/mL
"CC(C)(O)CCc1ccccc1 [Dimethyl Phenylbutanol, reference compound]",MIC,[8],2500 ppm
same,MIC,[9],2500 ppm
same,MIC,[10],1000 ppm
same,MIC,[11],1000 ppm
CC(C)=CCCC(C)=CCCC(C)=CCO [Farnesol],MIC,[26],16 µg/mL
"CCCC(O)CO (stereo not drawn) [Pentylene Glycol, 1,2-Pentanediol]",MIC,[1],15000 µg/mL
"CCCCCCCC(=O)OCC(O)CO (stereo not drawn) [glyceryl caprylate, reference compound]",MIC,[26],1000 µg/mL
same,MIC,[18],2500 µg/mL
same,MIC,[19],2500 µg/mL
same,MIC,[20],1000 µg/mL
C=CCCCCCCCCC(=O)OCC(O)CO (stereo not drawn) [glyceryl monoundecylenate],MIC,[3],low
same,MIC,[3]; read-out: MIC,250 µg/mL
